This note sets out measurements from paper PMC3392537 (Neuropharmacology, 2012).

One experiment addresses rat α3β4 (Rattus norvegicus, UniProt P04757+P12392). Put plainly: two-electrode voltage clamp, Xenopus oocytes. The format is cell-based. (In general: Two-electrode voltage clamp holds a large cell at a set potential and records current.)
Experiment [1] addresses α3(2)β4(2)α5 (β4–6–α3 concatamer + α5) (Homo sapiens, UniProt P30926+P32297). Put plainly: two-electrode voltage clamp, Xenopus oocytes. In kind it is cell-based.

For orientation: EC50 means the concentration needed to bring the measured effect to its halfway point. Low values mean greater potency, high ones weaker potency. In general, IC50 refers to the point on the concentration scale where inhibition reaches its midpoint.

Structures are written as SMILES.

Sequence of rat α3β4 (P04757 26-499): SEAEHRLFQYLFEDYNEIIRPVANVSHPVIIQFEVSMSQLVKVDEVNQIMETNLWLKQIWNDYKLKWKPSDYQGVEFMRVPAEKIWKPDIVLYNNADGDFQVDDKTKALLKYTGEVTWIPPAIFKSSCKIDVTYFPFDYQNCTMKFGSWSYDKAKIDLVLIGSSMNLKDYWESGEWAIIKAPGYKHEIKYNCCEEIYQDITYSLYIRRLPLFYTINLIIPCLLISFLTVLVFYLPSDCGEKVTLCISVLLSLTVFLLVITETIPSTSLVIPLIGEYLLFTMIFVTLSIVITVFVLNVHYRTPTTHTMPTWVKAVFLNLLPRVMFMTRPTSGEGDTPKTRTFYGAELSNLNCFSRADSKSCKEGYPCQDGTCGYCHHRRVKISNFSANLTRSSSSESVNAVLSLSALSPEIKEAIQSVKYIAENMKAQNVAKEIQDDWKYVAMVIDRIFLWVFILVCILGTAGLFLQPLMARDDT
Sequence of rat α3β4 (P12392 21-495): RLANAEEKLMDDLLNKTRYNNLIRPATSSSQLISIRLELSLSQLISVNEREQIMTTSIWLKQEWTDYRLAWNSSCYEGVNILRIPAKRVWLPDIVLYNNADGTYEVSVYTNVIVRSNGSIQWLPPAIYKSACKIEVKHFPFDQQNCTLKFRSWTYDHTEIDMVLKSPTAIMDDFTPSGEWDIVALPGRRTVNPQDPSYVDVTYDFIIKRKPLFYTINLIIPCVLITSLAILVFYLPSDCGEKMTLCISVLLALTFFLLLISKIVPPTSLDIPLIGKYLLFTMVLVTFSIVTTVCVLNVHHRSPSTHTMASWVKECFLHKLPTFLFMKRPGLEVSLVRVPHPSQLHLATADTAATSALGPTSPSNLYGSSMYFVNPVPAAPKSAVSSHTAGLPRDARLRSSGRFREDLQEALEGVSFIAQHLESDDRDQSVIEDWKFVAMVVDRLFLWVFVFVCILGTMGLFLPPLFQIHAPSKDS
Sequence of α3(2)β4(2)α5 (β4–6–α3 concatamer + α5) (P32297 32-505): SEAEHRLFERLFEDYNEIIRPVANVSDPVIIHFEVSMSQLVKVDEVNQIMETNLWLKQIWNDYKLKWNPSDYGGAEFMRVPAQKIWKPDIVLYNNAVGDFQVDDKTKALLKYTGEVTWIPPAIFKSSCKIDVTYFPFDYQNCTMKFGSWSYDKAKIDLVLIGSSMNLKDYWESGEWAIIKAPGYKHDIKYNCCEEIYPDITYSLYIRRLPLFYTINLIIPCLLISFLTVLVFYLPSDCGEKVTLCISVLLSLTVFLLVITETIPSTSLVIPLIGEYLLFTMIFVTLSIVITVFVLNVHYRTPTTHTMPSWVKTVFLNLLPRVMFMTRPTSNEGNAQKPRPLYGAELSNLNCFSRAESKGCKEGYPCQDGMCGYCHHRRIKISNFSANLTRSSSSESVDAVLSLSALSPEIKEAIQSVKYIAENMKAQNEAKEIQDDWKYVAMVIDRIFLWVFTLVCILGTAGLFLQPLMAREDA
Sequence of α3(2)β4(2)α5 (β4–6–α3 concatamer + α5) (P30926 22-498): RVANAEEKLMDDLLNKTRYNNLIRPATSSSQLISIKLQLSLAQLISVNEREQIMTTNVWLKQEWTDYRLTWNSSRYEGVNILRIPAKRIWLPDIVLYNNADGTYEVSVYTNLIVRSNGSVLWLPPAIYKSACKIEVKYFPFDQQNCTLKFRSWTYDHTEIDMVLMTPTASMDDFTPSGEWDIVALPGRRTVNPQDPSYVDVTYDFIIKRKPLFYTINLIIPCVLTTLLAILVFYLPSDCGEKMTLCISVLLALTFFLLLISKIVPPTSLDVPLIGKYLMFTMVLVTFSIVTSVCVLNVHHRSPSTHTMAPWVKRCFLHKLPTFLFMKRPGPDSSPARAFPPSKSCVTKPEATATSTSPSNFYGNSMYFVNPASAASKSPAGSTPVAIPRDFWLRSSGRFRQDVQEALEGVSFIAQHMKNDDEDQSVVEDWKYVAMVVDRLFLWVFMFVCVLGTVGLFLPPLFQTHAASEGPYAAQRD
Sequence of α3(2)β4(2)α5 (β4–6–α3 concatamer + α5) (P30532 23-468 partner): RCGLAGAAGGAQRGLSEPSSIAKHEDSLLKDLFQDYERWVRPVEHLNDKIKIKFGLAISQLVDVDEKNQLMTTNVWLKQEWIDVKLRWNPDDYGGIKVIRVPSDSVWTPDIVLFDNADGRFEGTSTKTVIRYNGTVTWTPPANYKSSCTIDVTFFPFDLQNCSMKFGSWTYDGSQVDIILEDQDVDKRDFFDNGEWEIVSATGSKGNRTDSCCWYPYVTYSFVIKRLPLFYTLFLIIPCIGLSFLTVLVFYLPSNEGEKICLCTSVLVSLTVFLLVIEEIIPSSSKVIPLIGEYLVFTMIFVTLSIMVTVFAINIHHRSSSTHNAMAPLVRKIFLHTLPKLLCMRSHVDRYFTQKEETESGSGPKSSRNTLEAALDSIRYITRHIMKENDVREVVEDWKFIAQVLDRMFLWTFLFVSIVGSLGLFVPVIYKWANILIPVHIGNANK

For `O=c1cccc2n1C[C@@H]1CNC[C@H]2C1` [cytisine], at rat α3β4, the EC50 came out at 520 ± 50 µM. Turning to `c1cnc2cc3c(cc2n1)C1CNCC3C1` [varenicline], the concentration giving a half-maximal response (EC50) on rat α3β4 stood at 28 ± 3.2 µM. This EC50 is about 19-fold lower than that of the compound before. As for `COc1ccc(C=C2CCCN=C2c2cccnc2)c(OC)c1` [GTS-21, 3-(2,4dimethoxybenzylidene)anabaseine], the concentration for half-maximal inhibition (IC50) in experiment [1] came to 9.17 ± 1.08 µM.
